In paper PMC5441580, “GPR40 partial agonist MK-2305 lower fasting glucose in the Goto Kakizaki rat via suppression of endogenous glucose production” (PLoS ONE, 2017):
Values joined by “and” are separate entries in the source; they are usually repeats but may differ in a detail not shown here. Identical values can stand only once.

Tests used:
[1] = tested on: WKY rats; assay: endogenous glucose production in vivo, 2H/13C dual tracer, acute treatment, WKY rats; parameters: species or system rat
Description: [The procedure below names another organism; the source lists this organism under the same test.] To evaluate whether MK-2305 treatment produced an effect on EGP in vivo, a ^2H/^13C dual tracer approach was used to calculate EGP and its contributing sources. On the day of the study, GK rats were bled via tail snip, and blood glucose was measured via glucometer. Ambient glucose was measured at 8 A.M. and used to sort animals into treatment groups (n = 8 per group). 0.9% NaCl salinated D2O (Sigma-Aldrich, St. Louis, MO) was administered to all animals via IP injection at dose volume of 20 ml/kg. Animals were then placed in clean cages and food was removed. After a 5 hour fast, blood glucose was measured and animals were dosed PO with MK-2305 at 10 mg/kg (5 ml/kg) or vehicle (0.5% methylcellulose) immediately followed by 50 mg/kg [U-^13C] glucose (Sigma-Aldrich) IP at 5 ml/kg. Blood was collected via tail snip at time points from 60–150 min post treatment to measure blood glucose as well as endogenous (^12C-glucose) and exogenous (^13C-glucose) via GCMS. Following the last tail blood collection, rats were anesthetized with isoflurane and cardiac blood was collected into K2EDTA tubes (Becton, Dickinson and Co., Franklin Lakes, NJ).
The serially collected blood samples were analyzed for ^13C-glucose enrichment using GC-MS analysis. The % ^13C glucose enrichments were then combined with the total glucose readings to calculate the concentration of ^13C-glucose, and these values were modeled with a two-compartment model of whole body glucose metabolism to calculate the average EGP for the period from 0–150 minutes.
Terminal blood samples were analyzed for relative ^2H enrichment in plasma glucose using the monoacetone glucose method. Briefly, samples were extracted with 70% perchloric acid and centrifuged at 25,000 rcf for 10 min at 4°C. The supernatant was collected and the pH was adjusted to 6–8 using KOH. The samples were then lyophilized overnight. To convert plasma glucose to monoacetone glucose (MAG), acetone and concentrated sulfuric acid were added to the lyophilized samples and stirred for 4 hours at room temperature. Water was then added and the pH adjusted to 2.0 with 3M Na2CO3. Samples were stirred moderately for 18 hours at room temperature, the pH was adjusted to 7 with 3M Na2CO3, and the samples were completely dried by speed vacuum concentration. The resulting MAG samples were then extracted in hot ethyl acetate, dried overnight under a stream of N2 gas, purified using Discovery DSC-18 SPE columns (6 ml, 1 g bed weight), and freeze dried. Purified MAG samples were solubilized in 180 μl 90% acetonitrile for ^2H NMR analysis which was performed using the lock channel of a 950 MHz Bruker NMR spectrometer (David H Murdock Research Institute, Kannapolis, NC). Acquisition parameters were as follows: 90° pulse, D1 = 1 s, ^1H broadband decoupling, NS = 3600 averages, acquisition time ~ 1 hr. The ^2H NMR spectra of the MAG samples were then analyzed using in–house developed Matlab (The Mathworks Inc, Natick, MA) to model the NMR peaks with a Lorentzian line shape, and the results were used to calculate integrals for each of the seven NMR resonances in the MAG spectrum. Peaks 2, 5, and 6s were then used to calculate the relative sources of EGP (i.e. gluconeogenesis from TCA cycle substrates, gluconeogenesis from triose phosphates, and glycogenolysis) and these values were combined with the total EGP measurement to calculate absolute fluxes of glucose production.

[2] = tested on: GK rats; assay: GK rat acute oral glucose tolerance test (OGTT) with insulin co-measurement; type: in vivo; parameters: Blood Glucose AUC / Insulin AUC: unit not given here; details: for Blood Glucose / Insulin (plasma) / Insulin AUC / Blood Glucose AUC: individual GK rats; for Insulin AUC: OGTT t = 0 to 60 min; for Blood Glucose AUC: OGTT t = 0 to 120 min
Description: On the day of the study, male GK rats were bled via tail snip, and blood glucose was measured via glucometer (OneTouch Ultra, Lifescan Inc., Milpitas, CA). Fed glucose was measured at 8 A.M. (lights on 7 A.M.– 7 P.M.) and used to select and sort animals into treatment groups (n = 8/ GK group, plus n = 6/WKY control group). Animals were then placed into clean cages, and food was removed. […] Dosages from 0.3–10 mg MK-2305 / kg body weight were tested. Both the GK and WKY control groups received vehicle (0.5% methylcellulose). Blood glucose was measured again (time = 0) immediately prior to a dextrose challenge of 1 g/kg at 10 ml/kg dose volume (Dextrose, Hospira Inc., Lake Forrest IL) and then again at 20, 40, 60, and 120 min after the glucose challenge. Insulin was co-measured to test the glucose-dependent secretory response to MK-2305 delivered acutely PO. […] […] Values of percent inhibition vs. vehicle for each treatment were generated from the AUC data. Maximally efficacious dose (MED) was defined as the minimum dosage generating a maximum inhibition of glucose excursion achieved with this compound in the OGTT assay.
Plasma was analyzed for triglycerides, NEFA, and HbA1C using a P Modular Roche Clinical Chemistry analyzer. Liver triglycerides were extracted as described by Bligh and Dyer, and were measured using the Infinity triglyceride assay kit (Thermo Scientific, Rockford, IL). Plasma insulin levels were measured via EIA (Mesoscale Discovery ELISA Kit, Gaithersburg MD).

[3] = acute treatment, 10 mg/kg, individual animals
[4] = 10 mg/kg PO, GK rats, p < 0.001
[5] = 0.3 mpk PO, 60 min after glucose challenge
[6] = 1 mpk PO, 60 min after glucose challenge
[7] = 3 mpk PO, 60 min after glucose challenge
[8] = 10 mpk PO, 60 min after glucose challenge

O=C1NC(=O)C(C2CCOc3cc(Oc4ccc(C(F)(F)F)cc4Cl)ccc32)S1 (stereo not shown) [MK-2305]
effects on EGP ([1]; acute): not statistically significant | Glucose Production, GNG Glycerol [1, 3]: 2.7 umol/kg/min (2×) and 2.4 umol/kg/min and 1.6 umol/kg/min | Glucose Production, GNG TCA [1, 3]: 8 µmol/kg/min and 8.7 µmol/kg/min and 7.8 µmol/kg/min and 6.4 µmol/kg/min | Glucose Production, GNG Total [1, 3]: 10.7 µmol/kg/min and 11.2 µmol/kg/min and 10.5 µmol/kg/min and 8.1 µmol/kg/min | Glucose Production, Glycogenolysis [1, 3]: 6.9 µmol/kg/min and 4.7 µmol/kg/min and 6.8 µmol/kg/min and 3.4 µmol/kg/min | decrease of glucose AUC vs. vehicle in OGTT ([2]; 0.3 mg/kg PO, GK rats, p < 0.001): 18% | increase in plasma insulin vs. vehicle during OGTT ([2]; 1 mg/kg PO, GK rats, p < 0.001): 59% | increase in plasma insulin vs. vehicle during OGTT ([2]; 3 mg/kg PO, GK rats, p < 0.001): 83% | reduction in glucose AUC from vehicle in OGTT ([2]; 3 mg/kg PO, GK rats, p < 0.001): 40% | decrease of glucose AUC vs. vehicle in OGTT [2, 4]: 54% | increase in plasma insulin vs. vehicle during OGTT [2, 4]: 124% | Blood Glucose ([2]; 0.3 mpk PO, 40 min after glucose challenge): 254 mg/dl and 284 mg/dl and 328 mg/dl and 294 mg/dl (2×) and 264 mg/dl and 219 mg/dl and 321 mg/dl | Blood Glucose [2, 5]: 197 mg/dL and 204 mg/dL and 264 mg/dL and 233 mg/dL and 229 mg/dL and 270 mg/dL and 209 mg/dL and 330 mg/dL | Insulin (plasma) [2, 5]: 1.219 ng/mL and 1.901 ng/mL and 1.676 ng/mL and 1.551 ng/mL and 1.782 ng/mL and 1.959 ng/mL and 1.355 ng/mL and 1.696 ng/mL | Blood Glucose ([2]; 0.3 mpk PO, 120 min after glucose challenge): 149 mg/dL and 196 mg/dL and 217 mg/dL and 188 mg/dL and 177 mg/dL and 203 mg/dL and 145 mg/dL and 249 mg/dL | Insulin AUC ([2]; 0.3 mpk PO): 107.011 and 73.5773 and 77.5052 and 96.9965 and 105.345 and 92.3289 and 113.426 and 113.509 | Blood Glucose AUC ([2]; 0.3 mpk PO): 30355 and 22170 and 34265 and 24465 and 25900 and 30390 and 27140 and 25850 | Insulin (plasma) ([2]; 0.3 mpk PO, time 0 min (before glucose challenge)): 1.527 ng/mL and 1.4 ng/mL and 1.238 ng/mL and 1.748 ng/mL and 1.648 ng/mL and 1.595 ng/mL and 1.041 ng/mL and 1.268 ng/mL | Insulin (plasma) ([2]; 0.3 mpk PO, time -70 min (before dosing)): 0.785 ng/mL and 1.027 ng/mL and 1.247 ng/mL and 1.425 ng/mL and 1.262 ng/mL and 0.879 ng/mL and 0.539 ng/mL and 0.638 ng/mL | Blood Glucose ([2]; 1 mpk PO, 40 min after glucose challenge): 191 mg/dL and 247 mg/dL and 193 mg/dL and 178 mg/dL and 222 mg/dL and 184 mg/dL and 221 mg/dL and 228 mg/dL | Blood Glucose [2, 6]: 162 mg/dL and 197 mg/dL and 120 mg/dL and 151 mg/dL and 200 mg/dL and 153 mg/dL and 188 mg/dL and 185 mg/dL | Insulin (plasma) [2, 6]: 1.868 ng/mL and 1.957 ng/mL and 1.358 ng/mL and 2.073 ng/mL and 2.523 ng/mL and 1.285 ng/mL and 2.265 ng/mL and 1.751 ng/mL | Blood Glucose ([2]; 1 mpk PO, 120 min after glucose challenge): 120 mg/dL and 147 mg/dL and 101 mg/dL and 113 mg/dL and 162 mg/dL and 119 mg/dL and 110 mg/dL and 132 mg/dL | Insulin AUC ([2]; 1 mpk PO): 127.564 and 125.822 and 145.583 and 145.346 and 124.296 and 92.8339 and 131.803 and 160.953 | Blood Glucose AUC ([2]; 1 mpk PO): 18600 and 21570 and 21405 and 19360 and 22440 and 17695 and 17840 and 23185 | Insulin (plasma) ([2]; 1 mpk PO, time 0 min (before glucose challenge)): 1.711 ng/mL and 2.457 ng/mL and 1.219 ng/mL and 2.149 ng/mL and 2.161 ng/mL and 2.386 ng/mL and 1.648 ng/mL and 2.525 ng/mL | Insulin (plasma) ([2]; 1 mpk PO, time -70 min (before dosing)): 0.867 ng/mL and 1.049 ng/mL and 0.952 ng/mL and 1.247 ng/mL and 1.294 ng/mL and 0.937 ng/mL and 1.068 ng/mL and 1.695 ng/mL | Blood Glucose ([2]; 3 mpk PO, 40 min after glucose challenge): 134 mg/dl and 184 mg/dl and 174 mg/dl (2×) and 183 mg/dl and 148 mg/dl and 181 mg/dl and 197 mg/dl | Blood Glucose [2, 7]: 117 mg/dl and 116 mg/dl (2×) and 128 mg/dl and 136 mg/dl and 121 mg/dl and 86 mg/dl and 167 mg/dl | Insulin (plasma) [2, 7]: 1.611 ng/mL and 1.625 ng/mL and 1.542 ng/mL and 2.593 ng/mL and 2.136 ng/mL and 0.682 ng/mL and 1.668 ng/mL and 1.737 ng/mL | Blood Glucose ([2]; 3 mpk PO, 120 min after glucose challenge): 98 mg/dl and 130 mg/dl and 111 mg/dl and 112 mg/dl and 104 mg/dl (2×) and 78 mg/dl and 124 mg/dl | Insulin AUC ([2]; 3 mpk PO): 154.858 and 139.888 and 150.655 and 143.381 and 149.287 and 136.931 and 166.524 and 165.471 | Blood Glucose AUC ([2]; 3 mpk PO): 13845 and 15230 and 19575 and 14655 and 17655 and 16235 and 16890 and 15775 | Insulin (plasma) ([2]; 3 mpk PO, time 0 min (before glucose challenge)): 2.038 ng/mL and 2.813 ng/mL and 2.511 ng/mL and 1.822 ng/mL and 2.53 ng/mL and 1.993 ng/mL and 3.94 ng/mL and 2.292 ng/mL | Insulin (plasma) ([2]; 3 mpk PO, time -70 min (before dosing)): 1.014 ng/mL and 1.059 ng/mL and 0.86 ng/mL and 1.354 ng/mL and 1.26 ng/mL and 1.009 ng/mL and 0.738 ng/mL and 0.715 ng/mL | Insulin (plasma) ([2]; 10 mpk PO, 10 min after glucose challenge): 2.601 ng/mL and 2.364 ng/mL and 2.726 ng/mL and 5.09 ng/mL | Blood Glucose ([2]; 10 mpk PO, 40 min after glucose challenge): 175 mg/dL and 159 mg/dL and 143 mg/dL and 141 mg/dL and 190 mg/dL and 140 mg/dL and 169 mg/dL and 138 mg/dL | Blood Glucose [2, 8]: 112 mg/dL and 121 mg/dL and 110 mg/dL and 96 mg/dL and 134 mg/dL and 125 mg/dL and 136 mg/dL and 122 mg/dL | Insulin (plasma) [2, 8]: 3.212 ng/mL and 2.293 ng/mL and 2.244 ng/mL and 2.355 ng/mL and 1.203 ng/mL and 2.734 ng/mL and 1.35 ng/mL and 1.965 ng/mL | Blood Glucose ([2]; 10 mpk PO, 120 min after glucose challenge): 95 mg/dL and 96 mg/dL and 92 mg/dL and 103 mg/dL and 108 mg/dL and 106 mg/dL and 90 mg/dL and 86 mg/dL | Insulin AUC ([2]; 10 mpk PO): 214.776 and 171.523 and 203.357 and 192.34 and 162.197 and 187.807 and 233.894 and 115.015 | Blood Glucose AUC ([2]; 10 mpk PO): 15625 and 16245 and 14660 and 15615 and 15760 and 13890 and 14070 and 17780 | Insulin (plasma) ([2]; 10 mpk PO, time 0 min (before glucose challenge)): 4.429 ng/mL and 3.472 ng/mL and 2.279 ng/mL and 3.372 ng/mL and 2.041 ng/mL and 3.234 ng/mL and 3.429 ng/mL and 2.217 ng/mL | Insulin (plasma) ([2]; 10 mpk PO, time -70 min (before dosing)): 1.186 ng/mL and 1.004 ng/mL and 1.491 ng/mL and 1.304 ng/mL and 0.764 ng/mL and 1.19 ng/mL and 0.996 ng/mL and 0.784 ng/mL | Blood Glucose ([2]; 10 mpk PO, time AM (fed, before dosing)): 188 mg/dL and 169 mg/dL and 124 mg/dL and 160 mg/dL | MED (maximally efficacious dose) in OGTT ([2]; GK rats, PO): 3 mg/kg
